Entries after “also recorded” stand apart in the source; their conditions may differ.
Key:
human NPSR-107I = biological target: T1, human NPSR-107I (Homo sapiens, UniProt Q6W5P4, N107I); test: Ca+2 mobilization assay (apparent Ke against NPS); type: cell-based
T1 construct: expressed in transfected cells
T1 sequence (Q6W5P4 1-371 N107I): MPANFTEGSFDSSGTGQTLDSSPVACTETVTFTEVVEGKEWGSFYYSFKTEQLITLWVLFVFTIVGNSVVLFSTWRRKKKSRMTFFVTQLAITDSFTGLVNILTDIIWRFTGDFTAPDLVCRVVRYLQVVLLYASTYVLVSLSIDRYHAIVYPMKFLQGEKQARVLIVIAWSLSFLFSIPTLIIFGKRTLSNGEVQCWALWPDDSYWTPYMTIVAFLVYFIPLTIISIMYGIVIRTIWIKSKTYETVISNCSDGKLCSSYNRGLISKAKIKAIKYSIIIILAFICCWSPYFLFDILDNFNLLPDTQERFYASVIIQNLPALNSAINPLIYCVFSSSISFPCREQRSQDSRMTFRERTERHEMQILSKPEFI
Description: A stable cell line overexpressing the human NPSR-107I was created in CHO-Gαq16 cells (RD-HGA16, Molecular Devices), as previously described. Briefly, CHO-Gαq16 cells were transfected with pcDNA 3.1 human NPSR-107I using Lipofectamine reagent. Transfected cells were plated into 10 cm^2 dishes 24 h post-transfection and were selected using Geneticin. After 2 weeks, individual clones were selected, grown to confluence, and screened in a functional 96-well calcium mobilization assay that measured the response to NPS (100 nM final). […] A final working clone was chosen for all subsequent studies based on NPS potency and the calcium mobilization signal window. CHO-Gα16-hNPSR-107I cells were cultured in Ham’s F12 media supplemented with 10% FBS, 100 units/mL penicillin, 100 μg/mL streptomycin, 200 μg/mL hygromycin, and 400 μg/mL geneticin. Media were purchased from HyClone (GE Life Sciences); FBS, penicillin/streptomycin, hygromycin, and geneticin were purchased from Invitrogen (Thermo Scientific). The day before the assay, cells were plated into 96-well black-walled assay plates at 25,000–40,000 cells/well in growth medium without selection antibiotics. Cells were incubated overnight at 37 °C, 5% CO2. The FLIPR Calcium 5 assay kit (Molecular Devices) was used according to the manufacturer’s instructions with minor modifications. Briefly, reconstituted dye was diluted in pre-warmed assay buffer (HBSS, 20 mM HEPES, 2.5 mM probenecid, pH 7.4 at 37 °C). Growth medium was removed, and the cells were gently washed with assay buffer. Calcium 5 dye was added to the cells and the plate was incubated for 45 min at 37 °C, 5% CO2. A single concentration of test compound and 10-point concentration–response curves of NPS (ranging from 100 nM to 1 pM) were prepared at 10× the desired final concentration. Cells were pretreated with the test compound or vehicle in a final concentration of 0.25% BSA/1% DMSO for 15 min at 37 °C. Assay plates were read with a FlexStation II instrument (excitation at 485 nm, detection at 525 nm, Molecular Devices). Calcium-mediated changes in fluorescence were monitored every 1.5 s over a 90 s time period. NPS was added during the read and the maximum kinetic […] (SoftMax [Max-Min], Molecular Devices) in relative fluorescent units (RFU) was measured. Data were fitted to a three-parameter logistic curve to generate EC50 values (GraphPad Prism 6.0). Antagonism was quantified by measuring the ratio of equi-active concentrations of agonist measured in the presence or absence of the antagonist. Apparent Ke values were calculated using the equation Ke = [L]/((EC50^+/EC50^−) − 1), where [L] is the concentration of test compound, EC50^+ is the EC50 of NPS with test compound, and EC50^– is the EC50 of NPS alone. Ke values were considered valid when the EC50^+/EC50^− ratio was at least 4. HBSS and HEPES were purchased from Gibco (Thermo Scientific); probenecid, BSA, and DMSO were purchased from Sigma-Aldrich.

[1] = Glutathione incubation assay; type: physicochemical; details: 2 mM compound, 18 mM glutathione, MeCN/water, up to 48 h, LC/MS
Description: For the glutathione incubation assay, 20 mM stock solutions of compound 14b in MeCN (400 µL) and glutathione GSH in MeCN: Milli-Q H2O (10 mL, 1: 1, v/v) were prepared in separate scintillation vials. To prepare the incubation solution, 100 µL of 14b solution and 900 µL of GSH solution were taken in a clean HPLC vial. The final concentrations of 14b and GSH were 2 mM and 18 mM, respectively. In addition, a 2 mM reference solution of 14b was prepared by adding 100 µL of 14b stock solution to an HPLC vial containing 900 µL of MeCN: H2O (1:1), and an 18 mM reference solution of GSH was prepared by adding 900 µL of GSH stock solution to an HPLC vial containing 100 µL of MeCN.
Low-resolution mass spectra were obtained using an Agilent InfinityLab MSD single quadrupole mass spectrometer system (ESI). […] Chromatograms were detected using 254 and 280 nm wavelengths with 5 µL injections and data were processed using a general walkup method*.
*LC/MS Walkup Method: an Agilent InfinityLab MSD single quadrupole mass spectrometer equipped with an API-ES and an Agilent Infinity II 1260 HPLC equipped with an Agilent Infinity 1260 variable wavelength detector and a Phenomenex Synergi […] Hydro-RP 100A C18 30 × 2 mm column. […] MS Method: using atmospheric pressure ionization–electrospray, positive and negative ions were monitored in the range of 70–700 or 200–2000 (for compounds with a MW > 700).

## CC(C)CC1(c2ccccc2)OC(=O)C2=C1CN(C(=O)NCc1ccccc1)CC2 (single isomer, unassigned; (+)) [Compound 14b, (+) N-benzyl-3-(2-methylpropyl)-1-oxo-3-phenyl-1H,3H,4H,5H,6H,7H-furo[3,4-c]pyridine-5-carboxamide]
Human NPSR-107I; 3 µM concentration, calcium mobilization assay
  Shift of the agonist activity of NPS: significant right shift
Human NPSR-107I; Calcium Mobilization, CHO-Gα16-hNPSR-107I cells, shift of NPS EC50
  Kb: 71.4 nM
Human NPSR-107I; in vitro antagonist potency
  Potency relative to SHA-68: approximately sevenfold less potent
[1]
  Glutathione adduct formation: No glutathione adduct was identified; also recorded: stable
